Assay results reported in US11225507B2, “Conformation switchable antimicrobial peptides and methods of using the same” (priority 2017, dated 2022).

Experiments:
[1] = Circular dichroism (CD) secondary structure of polypeptides at different pH; format: physicochemical; conditions: pH 7.4 or 3.0
Protocol: The secondary structure of the polypeptides at different pH value was then investigated by circular dichroism (CD). […] Distortion of helical conformation was noted when the pH was adjusted back to neutral (FIG. 1C).
The MALLS detector was calibrated using pure toluene and can be used for the determination of the absolute molecular weights (MWs). The MWs of polymers were determined based on the dn/dc value of each polymer sample calculated offline by using the internal calibration system processed by the ASTRA V software (version 5.1.7.3, Wyatt Technology, Santa Barbara, Calif., USA). Circular dichroism (CD) measurements were carried out on a JASCO J-815 CD spectrometer. The polymer samples were prepared at concentrations of 4.4 μM. The solution was placed in a quartz cell with a path length of 0.10 cm. The zeta-potential of polypeptides was evaluated by Malvern Zetasizer. Infrared spectra were recorded on a Perkin Elmer 100 serial FTIR spectrophotometer calibrated with polystyrene film. Lyophilization was performed on a FreeZonelyophilizer (Labconco, Kansas City, Mo., USA). UV light was generated from an OmiCure S1000 UV lamp (EXFO, Mississauga, Canada).

H. pylori SS1 [2] = assay: H. pylori killing kinetics at various pHs (CFU counting, 1 h); format: cell-based, Helicobacter pylori
Protocol: H. pylori killing kinetics at various pHs. The killing kinetics of polypeptides were measured against H. pylori by counting the colony forming units (CFU) of alive bacteria with agar plating. The polypeptides at various concentrations were dissolved in the Tris-HC buffer at various pHs (pH 7.4, 4.0, 3.0). H. pylori were then collected and dispersed in the BB medium supplied with fresh urea (10 mM) and 10% FBS at different pHs (pH 7.4, 4.0, 3.0). The optical density at 600 nm of the bacteria were fixed at 0.1. The bacteria were then incubated with the polypeptides solution at corresponding pH in the incubator supplied with 10% CO2 at 37° C. Samples were taken for a series of ten-fold dilutions, and plated out in BB agar plates with 10% FBS and vancomycin (pH 7.4) after 1 h incubation. The plates were incubated for 72 h in the incubator and the bacteria were counted for CFU. Bacteria incubated with Tris-HCl buffer only at corresponding pH were served as 100% survival. Survival rate (%)=CFU of bacteria treated with polypeptides/CFU of bacteria treated with buffer×100%. The killing kinetics of antibiotics (OAC, omeprazole, amoxicillin, clarithromycin) against H. pylori were determined with a similar procedure. The antibiotics at various concentrations were dissolved in the Tris-HCl buffer at pH 7.4, or 3.0, and were then incubated with H. pylori in BB medium supplied with fresh urea (10 mM) and 10% FBS at corresponding pH in the incubator. After 1 h incubation, the bacteria were collected by centrifuge at 10,000 rcf for 5 min and washed with fresh BB medium. Samples were then taken for a series of ten-fold dilutions, and plated out in BB agar plates with 10% FBS and vancomycin. The plates were incubated for 72 h in the incubator and the bacteria were counted for CFU.

[3] = Liposome dye leakage assay (ANTS/DPX efflux)
Protocol: Liposome dye leakage assay. ANTS (12.5 mM) and DPX (45 mM) were dissolved in Tris buffer (pH=7.4). To a clean round-bottom flask, appropriate volumes of lipid stocks were added to make up 1 mL of CHCl3 (3:1 POPE (1-palmitoyl-2-oleoyl-sn-glycero-3-phosphoethanolamine)/POPG (1-palmitoyl-2-oleoyl-sn-glycero-3-phospho-(1′-rac-glycerol) (sodium salt)) vesicles, POPE (130 μL, 25 mg/mL CHCl3) and POPG (115 μL, 10 mg/mL CHCl3) were used). The solvent was removed by a stream of nitrogen gas to obtain a thin lipid film, which was then hydrated by 1 mL of ANTS/DPX solution. The mixture was left to hydrate for 1 h, after which it was subjected to 10 freeze-thaw cycles (using dry ice/acetone to freeze and warm water to thaw). The suspension was extruded 20 times through a polycarbonate membrane with 400 nm pore diameter. The excess dye was removed using Sephadex G-50 column as the eluent. The dye-filled vesicle fractions were diluted 200 times with Tris buffer. This suspension (90 μL) was subsequently mixed with polypeptide stock solutions (10 μL) at various pH (pH 7.4 or 4.0) on a 96-well black microplate (Greiner, flat bottom). Tris buffer (10 μL, pH 7.4 or 4.0) and Triton-X (0.1% v/v, 10 μL, pH 7.4 or 4.0) were employed as the negative and positive controls at corresponding pH, respectively. After 30 min, the fluorescence intensity in each well was recorded using the microplate reader with excitation and emission wavelengths of 380 and 520 nm, respectively. The percentage of leaked […] dye in each well was determined as follows: leakage (%)=[(F−F0)/(FTX−F0)]×100%, where F is the fluorescence intensity recorded in the well, F0 is the intensity in the negative control well, and FTX is the intensity in the positive control well.

H. pylori SS1 [4] = assay: Anti-H. pylori efficacy in vivo (infected C57BL/6J mice); design: species or system Helicobacter pylori; conditions: oral gavage once daily for 3 d, 2.6 μmol/kg
Protocol: Anti-H. pylori efficacy in vivo. […] For triple therapy, mice were first administered omeprazole (a proton pump inhibitor) through oral gavage at a dose of 400 μmol/kg, followed by a lag time of 30 min before administration of amoxicillin (68.0 μmol/kg) and clarithromycin (19.1 μmol/kg). PL2 and PDL2 in 5% (vol/vol) DMSO (both at 2.6 μmol/kg) were administered through oral gavage once daily for a consecutive 3 d. Water solution with 5% DMSO was served as negative control group. Forty-eight hours after the last administration, mice were killed and the stomach was removed from the abdominal cavity. The stomach was cut along the greater curvature, and the gastric content was removed and rinsed with PBS. The stomach sections were used for assessment of bacterial colonization. For bacterial colonization, a gastric tissue section was suspended in 1 mL PBS and homogenized for H. pylori recovery. The homogenate was serially diluted and spotted onto Columbia agar plate containing vancomycin (20 μg/mL), amphotericin (2 μg/mL), bacitracin (30 μg/mL) and nalidixic acid (10 μg/mL). The plates were then incubated at 37° C. under microaerobic conditions for 5 d, and bacterial colonies were enumerated and adjusted for dilutions.

H. pylori SS1 [5] = assay: SEM analysis of bacterial morphology; format: cell-based, Helicobacter pylori; conditions: 30 min
Protocol: SEM analysis. SS1 bacterial cells grown in BB with the supplement of 10% FBS under pH 7.4 or 4.0 with or without polypeptides (2.2 μM) treatment were performed using a similar protocol as killing kinetics measurements but with a 30 min incubation time. All the samples were collected into a microfuge tube and pelleted at 4000 rpm for 5 min, and then washed twice with phosphate-buffered saline. Subsequently, bacteria were fixed with paraformaldehyde solution (4%) for 1 h before proceeding, followed by washing with DI water. Dehydration was performed with a series of graded ethanol solution (10%, 25%, 50%, 75%, 95%, and 100%). The dehydrated samples were dried under vacuum overnight before being mounted on carbon tape and coated with gold-platinum for imaging using a Hitachi S-4700 High Solution SEM (Japan).

H. pylori SS1 [6] = assay: MIC of antibiotics against SS1; format: cell-based; conditions: Helicobacter pylori
[7] = tested on: clinical isolated H. pylori stains J99, J99A-7, J99A-9, J99A-11, J99C-8, J99D-1; assay: Growth (OD600) of clinical isolated H. pylori strains with antibiotics; format: cell-based, Helicobacter pylori; conditions: pH 7.4, 10% CO2, 37° C.
Protocol: FIG. 8. (A) The survival rate of H. pylori after incubation with amoxicillin (273.7 μM) and clarithromycin (133.7 μM) under pH 7.4 or 3.0 for 1 h. […] Concentrations of omeprazole, amoxicillin, and clarithromycin in OAC1 are 20.0 μM, 6.8 μM, and 1.9 μM, respectively; in OAC2 are 40.0 μM, 13.6 μM, and 3.8 μM, respectively; in OAC3 are 80.0 μM, 27.2 μM, and 7.6 μM, respectively. (C) The antibacterial activity of omeprazole (O) and a combination of amoxicillin and clarithromycin (AC) against SS1 at pH 3.0. O1, O2, O3 represents the concentration of omeprazole at 20.0 μM, 40.0 μM, and 80.0 μM, respectively. AC1, AC2, AC3 represents the concentration of amoxicillin and clarithromycin at 6.8 μM and 1.9 μM, 13.6 μM and 3.8 μM, 27.2 μM and 7.6 μM, respectively. The antibiotics were incubated with H. pylori strains for 1 h. The antibacterial activity of amoxicillin (D) and clarithromycin (E) against clinical isolated H. pylori stains, J99, J99A-7, J99A-9, J99A-11, J99C-8, J99D-1. The bacteria were incubated with antibiotics under pH 7.4 in the 10% CO2 incubator (37° C.), and the optical density at 600 nm (OD600) of bacteria were analyzed to determine the growth of bacteria. […] (G) The antibacterial activity of omeprazole (0) and a combination of amoxicillin and clarithromycin (AC) against J99D-1 under pH 3.0.

Row | Compound | secondary structure (CD), dependence on pH [1] | bactericidal activity against SS1 (H. pylori SS1 [2]; pH 3.0, 1 h incubation) | bactericidal activity against SS1 (H. pylori SS1 [2]; pH 7.4, 1 h incubation) | dye leakage from anionic liposomes ([3]; pH 4.0) | dye leakage from anionic liposomes ([3]; pH 7.4) | decrease of bacterial burden in the stomach as compared with the control group (H. pylori SS1 [4]) | bacterial membrane/morphology by SEM (H. pylori SS1 [5]; pH 4.0, 2.2 μM) | bacterial membrane/morphology by SEM (H. pylori SS1 [5]; pH 7.4, 2.2 μM) | MIC (H. pylori SS1 [6]) | bacteria killed (H. pylori SS1 [2]; pH 7.4, 1 h incubation, 133.7 μM) | susceptibility of J99A-7, J99A-11, J99C-8 and J99D-1 (growth, OD600) [7] | bacteria killed (H. pylori SS1 [2]; pH 7.4, 1 h incubation, 273.7 μM)
1 | (PDLGA)20-r-(PHDLG-MHH)25 [PDL2] | pH-independent non-helical conformation | unappreciable bactericidal activity | unappreciable bactericidal activity | unappreciable dye leakage | unappreciable dye leakage | no significant decrease of bacterial burden | did not affect the morphology of bacteria | did not affect the morphology of bacteria |  |  |  | 
2 | CC[C@H]1OC(=O)[C@H](C)[C@@H](O[C@H]2C[C@@](C)(OC)[C@@H](O)[C@H](C)O2)[C@H](C)[C@@H](O[C@@H]2O[C@H](C)C[C@H](N(C)C)[C@H]2O)[C@](C)(OC)C[C@@H](C)C(=O)[C@H](C)[C@@H](O)[C@]1(C)O [clarithromycin, reference compound] |  | no bactericidal activity |  |  |  |  |  |  | 0.07 µM | ~60% | resistant | 
3 | CC1(C)S[C@@H]2[C@H](NC(=O)[C@H](N)c3ccc(O)cc3)C(=O)N2[C@H]1C(=O)O [amoxicillin, reference compound] |  | no bactericidal activity |  |  |  |  |  |  | 0.13 µM |  |  | ~40%
4 | (PHLG-MHH)20 [PL1] | stable helical conformation independent of pH change | killed H. pylori SS1 | killed H. pylori SS1 | notable dye leakage | notable dye leakage |  | membrane disruption | membrane disruption |  |  |  | 
